From patent US4168316A, “Immunosuppressive-1-(thiocarbamoyl)-2-imidazolidinone” (Northwestern University, priority 1978, dated 1979)

What was measured:
[1] = test system: DNFB-induced ear swelling; assay: ear swelling assay, delayed-type contact sensitivity to 2,4-dinitro-1-fluorobenzene (DNFB); assay type: in vivo, inbred mice (C57BL/6J; (C57BL/6J×DBA/2J) F1)
Description: In further proof of the activity of the purified material from Example 3 as compared with niridazole per se, there was employed the ear swelling assay of Phanuphak et al. (1), which measures delayed-type contact sensitivity of inbred mice to 2,4-dinitro-1-fluorobenzene (DNFB). The assay was done according to the following protocol: on Day 1, groups of mice, matched for sex and weight, had their abdomens shaved and received varying doses of niridazole or NIF, the purified product of Example 2. The animals were sensitized on Day 3 with 20 μl of 0.5% (v/v) DNFB in acetone: olive oil (4:1, v/v) applied to the shaved abdomen. The sensitization procedure was repeated on Day 4. On Day 8, mice were lightly anesthetized with ether and the right ear thickness measured (10^-2 ×mm) by a modified dial thickness gauge. The right ear was then challenged with 10 μl of 0.5% DNFB solution. Twenty-four hours later, the mice were again anesthetized and the thickness of the right ear was measured to determine the immune response (swelling to the DNFB challenge).

[2] = test system: inflammation related to delayed hypersensitivity; conditions: tests on experimental animals; cited from earlier work
[3] = test system: delayed hypersensitivity-type reactions; conditions: cited from earlier work
[4] = test system: granuloma formation around S. mansoni eggs; assay: granuloma formation around S. mansoni eggs injected intravenously into the pulmonary microvasculature; assay type: in vivo, CF1 Swiss albino female mice; conditions: niridazole single oral dose 1 mg/kg, Day -1, p<0.005
Protocol: Groups of 5 weanling CF1 Swiss albino female mice (18-22 g body weight) obtained from Carworth Farms, Inc., New City, New York were treated by intravenous injection with different doses of urine fractions at varying time intervals before egg injection. Untreated mice and niridazole treated animals (1 mg/kg body weight given orally on the day before egg injection) were used as controls. […] Fifty granulomas containing eggs in their centers were measured from each experimental group and the significance of the difference was evaluated by the Student's t test.

NC(=S)N1CCNC1=O [NIF, 1-(thiocarbamoyl)-2-imidazolidinone]
suppression of ear swelling ([1]; 10^-8 -10^-10 g/kg pure (NIF) urine extracts): 50% | SUPPRESSION ([1]; Exp. II, F1 mice, 1.2 × 10^-8 g/kg ip): 48 ± 7% | EAR SWELLING (± SEM) ([1]; Exp. II, F1 mice, 1.2 × 10^-8 g/kg ip, n=5, control 30.9): 16.0 ± 2.2 10^-2 × mm | SUPPRESSION ([1]; Exp. II, F1 mice, 1.2 × 10^-10 g/kg ip): 46 ± 4% | EAR SWELLING (± SEM) ([1]; Exp. II, F1 mice, 1.2 × 10^-10 g/kg ip, n=5, control 30.9): 16.8 ± 1.2 10^-2 × mm | SUPPRESSION ([1]; Exp. III, B6 mice, 1.6 × 10^-8 g/kg ip): 52 ± 14% | EAR SWELLING (± SEM) ([1]; Exp. III, B6 mice, 1.6 × 10^-8 g/kg ip, n=4, control 36.2): 17.5 ± 5.0 10^-2 × mm | SUPPRESSION ([1]; Exp. III, B6 mice, 1.6 × 10^-8 g/kg iv): 25 ± 21% | EAR SWELLING (± SEM) ([1]; Exp. III, B6 mice, 1.6 × 10^-8 g/kg iv, n=4, control 36.2): 27.2 ± 7.7 10^-2 × mm | SUPPRESSION ([1]; Exp. III, B6 mice, 1.6 × 10^-10 g/kg ip): 69 ± 13% | EAR SWELLING (± SEM) ([1]; Exp. III, B6 mice, 1.6 × 10^-10 g/kg ip, n=4, control 36.2): 11.4 ± 4.8 10^-2 × mm | SUPPRESSION ([1]; Exp. III, B6 mice, 1.6 × 10^-10 g/kg iv): 45 ± 12% | EAR SWELLING (± SEM) ([1]; Exp. III, B6 mice, 1.6 × 10^-10 g/kg iv, n=4, control 36.2): 20.0 ± 4.3 10^-2 × mm | SUPPRESSION ([1]; Exp. III, B6 mice, 1.6 × 10^-11 g/kg iv): 65 ± 9% | EAR SWELLING (± SEM) ([1]; Exp. III, B6 mice, 1.6 × 10^-11 g/kg iv, n=4, control 36.2): 12.8 ± 3.2 10^-2 × mm | SUPPRESSION ([1]; Exp. III, B6 mice, 1.6 × 10^-12 g/kg iv): 88 ± 9% | EAR SWELLING (± SEM) ([1]; Exp. III, B6 mice, 1.6 × 10^-12 g/kg iv, n=4, control 36.2): 4.4 ± 3.2 10^-2 × mm | ear swelling, in words ([1]; experiment III, extract dose 10^-12 g/kg): all but ablated | suppression at higher doses, in words ([1]; extract 10^-8 g/kg i.v.): less suppression

O=C1NCCN1c1ncc([N+](=O)[O-])s1 [niridazole, 1-(5-nitro-2-thiazolyl)-2-imidazolidinone, reference compound]
effect on inflammation related to delayed hypersensitivity, in words [2]: suppression of inflammation related to delayed hypersensitivity including retardation of allograft rejection | suppression of delayed hypersensitivity-type reactions, in words ([3]; human studies by Webster et al): corroborated the suppression of delayed hypersensitivity-type reactions | effect on inflammations, in words ([3]; patients undergoing prolonged treatment, Mahmoud et al): suppressed inflammations | mean granuloma area ([4]; Table III experiment): 11 ± 2.6 μ^2 × 10^3 | mean granuloma area ([4]; Table IV experiment): 8 ± 2.6 μ^2 × 10^3 | suppression of ear swelling, in words ([1]; 10^-3 to 10^-4 g/kg niridazole intraperitoneally): Significant suppression of ear swelling | SUPPRESSION ([1]; Exp. I, F1 mice, niridazole dose 10^-2, ip): 37 ± 3% | EAR SWELLING (± SEM) ([1]; Exp. I, F1 mice, niridazole dose 10^-2, ip, n=5, control 26.9): 17.0 ± 0.9 10^-2 × mm | SUPPRESSION ([1]; Exp. I, F1 mice, niridazole dose 10^-3, ip): 66 ± 4% | EAR SWELLING (± SEM) ([1]; Exp. I, F1 mice, niridazole dose 10^-3, ip, n=5, control 26.9): 9.1 ± 1.2 10^-2 × mm | suppression at higher doses, in words ([1]; niridazole 10 mg/kg): less suppression
